This is an account of results in ChEMBL document CHEMBL1201862, “PubChem BioAssay data set” (2004).

Active and inactive are the calls of the source.

For data set [1], the target named is Voltage-dependent T-type calcium channel subunit alpha-1H (Homo sapiens, UniProt O95180). It is filed as functional.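 Note: channel activity triggered by adding a high calcium stimulation buffer.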
Data set [2] can be described thus: cells.
Data set [3] in a line: cells. It is filed as functional, cell-based.
The nature of data set [4]: viability of uninfected HEp-2 cells – cell-based, HTS, cytotoxicity control for RSV inhibitor project, dose response (AID 2410). The class given is functional. The conditions noted are these: human respiratory syncytial virus.
Data set [5] has as its system Vero. Briefly: cells. The class given is functional, cell-based. The conditions noted are these: Chlorocebus sabaeus.
Data set [6] concerns the target T1, DNA dC->dU-editing enzyme APOBEC-3G (Homo sapiens, UniProt Q9HC16). Briefly: Dose Response confirmation of small molecule APOBEC3G DNA Deaminase Inhibitors via a fluorescence-based single-stranded DNA deaminase assay. [Related pubchem assays (depositor defined):AID493012, AID493028]. It is filed as functional.
Data set [7] addresses Cytochrome P450 2C9 (Homo sapiens, UniProt P11712).
In data set [8] the test system is HEK293. Briefly: NOD2 signaling inhibitors in MDP-stimulated cells, cell-based, uHTS, luminescence (AID 2001). It is filed as functional. The conditions noted are these: Homo sapiens.
The subject of data set [9] is HEK293. Briefly: inhibition of NOD1-driven NF-kB reporter – cell-based, luminescence, uHTS, primary screen (AID 1578). It is filed as functional. The conditions noted are these: Homo sapiens.
For data set [10], the target named is Nucleotide-binding oligomerization domain-containing protein 2 (Homo sapiens, UniProt Q9HC29). Briefly: inhibition of NOD2-driven NF-kB reporter – cell-based, luminescence, uHTS, HEK293 (AID 1566). It is filed as functional.
The test system of data set [11] is HEK293. Briefly: cells. The class given is functional, cell-based. The conditions noted are these: Homo sapiens.
Data set [12] has as its system HEK293. Briefly: cells. To be noted: Homo sapiens. The class given is functional, cell-based. The source holds these as a separate data set.
For data set [13], the system named is HEK293. Briefly: cells. It is filed as functional, cell-based. To be noted: Homo sapiens. The source holds these as a separate data set.
Data set [14] addresses Cytochrome P450 3A4 (Homo sapiens, UniProt P08684).
Data set [15] deals with T2, CAAX prenyl protease 2 (Saccharomyces cerevisiae S288c, UniProt Q03530).
T2 sequence (Q03530 whole entry): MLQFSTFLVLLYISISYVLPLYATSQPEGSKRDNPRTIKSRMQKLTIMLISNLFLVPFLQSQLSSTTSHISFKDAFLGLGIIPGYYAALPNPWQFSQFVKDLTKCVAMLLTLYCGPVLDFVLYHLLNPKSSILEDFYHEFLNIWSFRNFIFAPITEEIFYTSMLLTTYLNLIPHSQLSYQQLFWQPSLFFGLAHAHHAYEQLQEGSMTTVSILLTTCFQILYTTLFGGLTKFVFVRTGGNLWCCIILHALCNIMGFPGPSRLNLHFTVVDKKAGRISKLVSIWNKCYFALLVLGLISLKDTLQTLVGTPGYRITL
It is filed as biochemical.

Data set [16] concerns the target T1, DNA dC->dU-editing enzyme APOBEC-3G. The class given is functional.
In data set [17] the target is DNA dC->dU-editing enzyme APOBEC-3A (Homo sapiens, UniProt P31941). Briefly: Dose Response confirmation of small molecule APOBEC3A DNA Deaminase Inhibitors via a fluorescence-based single-stranded DNA deaminase assay. [Related pubchem assays (depositor defined):AID493011, AID493024]. The class given is functional.
The nature of data set [18]: NIH3T3 cell viability loss – ATP luminescence, mouse fibroblasts, counter-screen, dose response (AID 2010).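 Note: cells exposed to compound for about 90 hours before reading.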 The class given is functional, cell-based. For orientation: The purpose of a counterscreen is to sort out artefacts and off-target activity.
Data set [19] relates to Vero. Briefly: cells. The class given is functional. To be noted: Chlorocebus sabaeus.
Data set [20] is described as follows: Trypanosoma cruzi growth suppression in host cells – NIH3T3 host cells, beta-gal luminescence, confirmation (AID 2044).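 Note: intracellular parasites grown in NIH/3T3 mouse fibroblasts as host cells; luminescent beta-galactosidase reporter signal from transgenic T. cruzi replicating inside host cells; inhibitors lower the luminescence signal.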 It is filed as functional, cell-based.
Data set [21] deals with Cytochrome P450 2C19 (Homo sapiens, UniProt P33261). Briefly: Cytochrome panel assay with activity outcomes. Panel member name: p450-cyp2c19 Compounds with AC50 equal or less than 10 uM are considered active. The class given is functional. To be noted: read-out: AC50.
Data set [22] deals with T3, Acyl-homoserine lactone acylase PvdQ (Pseudomonas aeruginosa (strain LESB58), UniProt Q9I194).
T3 sequence (Q9I194 whole entry): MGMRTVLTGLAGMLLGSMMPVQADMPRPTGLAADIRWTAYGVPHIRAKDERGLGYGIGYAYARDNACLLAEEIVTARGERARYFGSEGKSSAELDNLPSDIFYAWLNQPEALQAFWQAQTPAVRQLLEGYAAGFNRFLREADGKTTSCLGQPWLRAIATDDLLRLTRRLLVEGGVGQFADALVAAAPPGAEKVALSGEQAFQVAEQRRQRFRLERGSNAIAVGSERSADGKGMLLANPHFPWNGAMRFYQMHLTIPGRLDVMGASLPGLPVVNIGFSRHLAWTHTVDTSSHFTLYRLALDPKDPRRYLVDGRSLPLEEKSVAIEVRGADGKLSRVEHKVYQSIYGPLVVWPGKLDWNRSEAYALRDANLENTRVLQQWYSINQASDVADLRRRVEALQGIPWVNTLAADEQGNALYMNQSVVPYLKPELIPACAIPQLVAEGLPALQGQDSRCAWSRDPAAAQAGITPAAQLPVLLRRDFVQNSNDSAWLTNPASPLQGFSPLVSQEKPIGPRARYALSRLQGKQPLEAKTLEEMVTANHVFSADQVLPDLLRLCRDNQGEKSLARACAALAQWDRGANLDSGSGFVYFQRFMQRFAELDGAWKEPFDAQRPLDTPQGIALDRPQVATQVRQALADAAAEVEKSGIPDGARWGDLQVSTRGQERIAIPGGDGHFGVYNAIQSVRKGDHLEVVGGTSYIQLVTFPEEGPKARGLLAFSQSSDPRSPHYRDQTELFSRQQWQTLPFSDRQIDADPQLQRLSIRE
Briefly: PvdQ acylase enzyme activity blockers – biochemical, fluorescence, plate reader and imaging, cherry-picks, dose response (AID 493231).

Data set [23] in a line: Vero E6 cell cytotoxicity, dose response, cytotoxicity control for non-replicating M. tuberculosis project, secondary assay (AID 492998). It is filed as functional, VeroE6. To be noted: Vero C1008.
Data set [24] concerns the target T4, Microphthalmia-associated transcription factor (Homo sapiens, UniProt O75030).
T4 sequence (O75030 whole entry): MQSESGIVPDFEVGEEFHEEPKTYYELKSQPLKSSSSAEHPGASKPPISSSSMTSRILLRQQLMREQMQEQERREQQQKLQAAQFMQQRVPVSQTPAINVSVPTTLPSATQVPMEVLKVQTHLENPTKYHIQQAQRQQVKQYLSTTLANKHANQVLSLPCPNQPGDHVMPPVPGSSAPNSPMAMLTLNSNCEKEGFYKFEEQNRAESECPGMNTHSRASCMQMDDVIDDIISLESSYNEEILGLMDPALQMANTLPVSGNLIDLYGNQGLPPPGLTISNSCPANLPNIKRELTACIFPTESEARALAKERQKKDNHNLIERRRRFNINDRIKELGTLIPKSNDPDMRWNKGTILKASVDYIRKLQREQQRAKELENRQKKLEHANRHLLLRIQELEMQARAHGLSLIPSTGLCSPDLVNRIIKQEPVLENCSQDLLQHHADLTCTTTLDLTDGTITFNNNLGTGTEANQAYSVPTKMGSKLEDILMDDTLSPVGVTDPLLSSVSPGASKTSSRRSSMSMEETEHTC
Briefly: reducers of TRPM1 reporter luminescence, concentration series – cell-based, SK-MEL-5, cherry-picked, set 3, MITF inhibitor project, dose response (AID 493073).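 Note: SK-MEL-5 melanoma cells with luciferase driven by the MITF target TRPM1 promoter.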 The class given is functional.

The nature of data set [25]: cells. The class given is functional.
Data set [26] in a line: THP-1 cell cytotoxicity, dose response, cytotoxicity control for non-replicating M. tuberculosis project (AID 489025). It is filed as functional.
Data set [27] deals with Beta-galactosidase (Escherichia coli, UniProt Q8VNN2). Briefly: detection-enzyme interference by beta-gal modulators – biochemical, E. coli enzyme, set 3, artefact control for CCR6 antagonist project, dose response (AID 504712). It is filed as functional.

T1 sequence (Q9HC16 whole entry): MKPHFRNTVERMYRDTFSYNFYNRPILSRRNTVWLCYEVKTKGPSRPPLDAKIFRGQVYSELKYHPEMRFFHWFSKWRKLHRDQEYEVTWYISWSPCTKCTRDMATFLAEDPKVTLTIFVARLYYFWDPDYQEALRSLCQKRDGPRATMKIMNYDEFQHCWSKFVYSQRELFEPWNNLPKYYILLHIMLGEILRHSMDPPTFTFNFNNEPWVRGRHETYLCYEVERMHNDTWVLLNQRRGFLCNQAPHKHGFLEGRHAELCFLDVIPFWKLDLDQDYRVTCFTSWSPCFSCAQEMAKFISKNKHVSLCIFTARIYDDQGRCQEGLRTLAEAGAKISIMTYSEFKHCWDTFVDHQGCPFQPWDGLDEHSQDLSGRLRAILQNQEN
Cytochrome P450 2C9, sequence (P11712 whole entry): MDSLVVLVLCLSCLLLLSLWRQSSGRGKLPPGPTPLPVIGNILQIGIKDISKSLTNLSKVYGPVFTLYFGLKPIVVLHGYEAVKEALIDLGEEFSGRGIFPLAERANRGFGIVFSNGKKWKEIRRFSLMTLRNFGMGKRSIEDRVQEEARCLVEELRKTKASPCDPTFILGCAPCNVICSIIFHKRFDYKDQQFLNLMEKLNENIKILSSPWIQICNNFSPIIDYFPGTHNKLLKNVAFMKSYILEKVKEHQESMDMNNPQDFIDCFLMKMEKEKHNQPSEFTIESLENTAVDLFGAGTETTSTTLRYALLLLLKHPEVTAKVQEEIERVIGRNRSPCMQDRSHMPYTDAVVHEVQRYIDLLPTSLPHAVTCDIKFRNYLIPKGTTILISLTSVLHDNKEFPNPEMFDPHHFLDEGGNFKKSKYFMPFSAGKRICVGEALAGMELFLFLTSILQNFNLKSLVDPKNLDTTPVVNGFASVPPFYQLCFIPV
Voltage-dependent T-type calcium channel subunit alpha-1H, sequence (O95180 whole entry): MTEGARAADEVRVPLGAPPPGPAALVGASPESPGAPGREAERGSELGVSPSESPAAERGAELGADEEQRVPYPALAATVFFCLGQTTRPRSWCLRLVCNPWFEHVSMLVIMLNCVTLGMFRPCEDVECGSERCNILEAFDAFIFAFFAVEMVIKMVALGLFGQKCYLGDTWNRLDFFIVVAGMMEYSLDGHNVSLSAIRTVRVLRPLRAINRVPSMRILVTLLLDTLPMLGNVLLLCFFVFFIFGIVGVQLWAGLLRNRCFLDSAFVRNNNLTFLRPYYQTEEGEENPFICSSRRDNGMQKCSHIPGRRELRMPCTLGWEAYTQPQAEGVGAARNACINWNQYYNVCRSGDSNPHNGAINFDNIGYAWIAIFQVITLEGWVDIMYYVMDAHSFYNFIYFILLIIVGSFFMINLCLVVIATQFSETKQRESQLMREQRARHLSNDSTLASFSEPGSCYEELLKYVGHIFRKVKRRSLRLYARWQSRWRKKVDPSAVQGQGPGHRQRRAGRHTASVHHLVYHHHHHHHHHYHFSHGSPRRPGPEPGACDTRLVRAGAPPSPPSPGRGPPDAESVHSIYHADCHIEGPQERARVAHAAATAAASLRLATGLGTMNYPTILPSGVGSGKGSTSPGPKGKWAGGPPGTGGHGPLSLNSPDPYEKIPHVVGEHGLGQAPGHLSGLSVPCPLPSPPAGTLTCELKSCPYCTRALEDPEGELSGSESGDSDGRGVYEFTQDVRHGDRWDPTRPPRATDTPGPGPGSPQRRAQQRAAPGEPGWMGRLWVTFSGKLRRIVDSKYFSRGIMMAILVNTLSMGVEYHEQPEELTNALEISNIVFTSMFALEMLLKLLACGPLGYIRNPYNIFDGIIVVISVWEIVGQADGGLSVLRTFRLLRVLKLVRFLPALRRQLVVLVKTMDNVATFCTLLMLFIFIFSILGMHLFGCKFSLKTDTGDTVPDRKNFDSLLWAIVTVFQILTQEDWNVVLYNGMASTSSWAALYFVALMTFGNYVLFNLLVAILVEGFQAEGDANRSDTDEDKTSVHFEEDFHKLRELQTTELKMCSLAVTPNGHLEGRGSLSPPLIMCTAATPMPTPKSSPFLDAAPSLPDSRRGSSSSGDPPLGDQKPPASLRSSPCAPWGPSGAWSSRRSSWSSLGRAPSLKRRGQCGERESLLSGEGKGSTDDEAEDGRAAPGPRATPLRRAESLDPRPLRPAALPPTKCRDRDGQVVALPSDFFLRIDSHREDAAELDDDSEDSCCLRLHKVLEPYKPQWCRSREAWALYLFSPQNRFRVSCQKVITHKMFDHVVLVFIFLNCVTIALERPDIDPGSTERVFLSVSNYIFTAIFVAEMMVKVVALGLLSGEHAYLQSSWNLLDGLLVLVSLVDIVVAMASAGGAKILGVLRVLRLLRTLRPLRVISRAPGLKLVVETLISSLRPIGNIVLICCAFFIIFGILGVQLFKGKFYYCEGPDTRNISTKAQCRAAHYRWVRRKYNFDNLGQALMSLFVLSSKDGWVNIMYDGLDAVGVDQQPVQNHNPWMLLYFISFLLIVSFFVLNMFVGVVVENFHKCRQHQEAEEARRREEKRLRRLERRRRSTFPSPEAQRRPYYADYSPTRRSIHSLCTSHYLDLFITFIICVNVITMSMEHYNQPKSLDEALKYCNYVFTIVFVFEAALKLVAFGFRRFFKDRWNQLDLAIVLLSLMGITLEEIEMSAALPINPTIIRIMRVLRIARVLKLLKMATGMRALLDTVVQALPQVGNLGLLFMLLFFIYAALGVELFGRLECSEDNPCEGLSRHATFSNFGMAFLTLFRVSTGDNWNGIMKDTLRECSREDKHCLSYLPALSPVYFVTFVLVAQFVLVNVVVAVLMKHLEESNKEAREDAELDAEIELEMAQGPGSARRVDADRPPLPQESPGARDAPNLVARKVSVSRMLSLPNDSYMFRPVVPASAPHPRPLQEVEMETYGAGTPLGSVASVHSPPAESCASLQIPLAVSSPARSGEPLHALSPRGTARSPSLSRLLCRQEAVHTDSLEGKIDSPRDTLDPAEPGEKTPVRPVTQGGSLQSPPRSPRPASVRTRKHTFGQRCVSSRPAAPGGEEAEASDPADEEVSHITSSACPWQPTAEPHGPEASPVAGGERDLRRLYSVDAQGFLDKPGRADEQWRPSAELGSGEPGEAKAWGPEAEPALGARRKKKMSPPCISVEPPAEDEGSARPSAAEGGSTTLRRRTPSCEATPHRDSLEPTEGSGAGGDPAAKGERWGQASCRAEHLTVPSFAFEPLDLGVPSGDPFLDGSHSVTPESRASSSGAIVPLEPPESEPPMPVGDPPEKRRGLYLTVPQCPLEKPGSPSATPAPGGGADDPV
DNA dC->dU-editing enzyme APOBEC-3A, sequence (P31941 whole entry): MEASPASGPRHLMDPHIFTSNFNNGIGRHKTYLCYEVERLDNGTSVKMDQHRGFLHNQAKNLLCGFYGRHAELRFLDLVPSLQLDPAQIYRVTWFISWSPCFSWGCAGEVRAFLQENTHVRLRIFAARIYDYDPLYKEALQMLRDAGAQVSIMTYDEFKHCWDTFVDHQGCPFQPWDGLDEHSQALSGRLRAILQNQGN
Cytochrome P450 3A4, sequence (P08684 whole entry): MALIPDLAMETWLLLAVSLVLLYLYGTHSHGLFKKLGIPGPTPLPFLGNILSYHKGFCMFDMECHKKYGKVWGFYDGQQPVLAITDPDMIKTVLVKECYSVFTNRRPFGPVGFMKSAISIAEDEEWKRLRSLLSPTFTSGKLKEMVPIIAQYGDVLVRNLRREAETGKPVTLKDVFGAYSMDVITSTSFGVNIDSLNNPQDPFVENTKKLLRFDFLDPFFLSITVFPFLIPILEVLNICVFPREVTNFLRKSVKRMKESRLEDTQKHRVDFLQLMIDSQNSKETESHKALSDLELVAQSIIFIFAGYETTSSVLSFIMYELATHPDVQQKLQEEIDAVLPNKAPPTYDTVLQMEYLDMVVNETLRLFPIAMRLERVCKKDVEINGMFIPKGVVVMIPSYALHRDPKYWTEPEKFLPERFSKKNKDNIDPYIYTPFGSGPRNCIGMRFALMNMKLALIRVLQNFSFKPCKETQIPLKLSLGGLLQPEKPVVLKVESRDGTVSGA
Nucleotide-binding oligomerization domain-containing protein 2, sequence (Q9HC29 whole entry, the tested form may be a part): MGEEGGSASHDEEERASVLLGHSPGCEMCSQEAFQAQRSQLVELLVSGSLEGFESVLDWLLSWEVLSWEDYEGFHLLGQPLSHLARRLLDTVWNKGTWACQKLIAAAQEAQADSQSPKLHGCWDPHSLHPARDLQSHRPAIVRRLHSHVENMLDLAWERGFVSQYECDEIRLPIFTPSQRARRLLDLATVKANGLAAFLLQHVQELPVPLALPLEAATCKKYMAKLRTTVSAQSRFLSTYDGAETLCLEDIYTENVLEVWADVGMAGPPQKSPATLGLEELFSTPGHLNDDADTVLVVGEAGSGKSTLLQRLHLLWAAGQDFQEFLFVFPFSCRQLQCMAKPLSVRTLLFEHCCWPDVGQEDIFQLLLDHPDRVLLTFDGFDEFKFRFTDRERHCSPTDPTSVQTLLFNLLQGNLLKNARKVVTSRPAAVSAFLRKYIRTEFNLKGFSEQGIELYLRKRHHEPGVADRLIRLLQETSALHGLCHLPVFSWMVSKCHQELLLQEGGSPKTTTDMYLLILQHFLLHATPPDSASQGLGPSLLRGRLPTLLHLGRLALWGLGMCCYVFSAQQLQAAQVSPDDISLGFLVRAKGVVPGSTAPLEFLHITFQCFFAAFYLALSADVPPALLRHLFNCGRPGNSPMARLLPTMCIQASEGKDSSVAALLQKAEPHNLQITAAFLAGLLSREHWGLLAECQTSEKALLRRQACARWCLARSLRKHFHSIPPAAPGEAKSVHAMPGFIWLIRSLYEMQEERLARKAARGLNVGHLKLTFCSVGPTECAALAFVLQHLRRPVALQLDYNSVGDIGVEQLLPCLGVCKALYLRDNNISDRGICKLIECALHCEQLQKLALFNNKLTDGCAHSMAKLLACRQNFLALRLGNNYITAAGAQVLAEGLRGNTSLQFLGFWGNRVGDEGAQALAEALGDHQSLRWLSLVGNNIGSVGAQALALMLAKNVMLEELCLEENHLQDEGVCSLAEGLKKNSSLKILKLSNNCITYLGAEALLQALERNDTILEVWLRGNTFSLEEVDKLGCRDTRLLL

Regarding `O=P(Nc1ccccc1Cl)(c1ccccc1)c1nc2c(s1)CCCC2` (stereo not given), the half-maximal effective concentration (EC50) in data set [1] is 5.95 µM (active).
For the molecule `Cc1ccc2c(c1)cc(C(=O)NCc1ccccc1)n2C`, the figures for the half-inhibitory concentration (IC50) in data set [2] and in [5] were 24 µM (active) and 17.8 µM (active), respectively. In addition, in data set [3], the EC50 is > 350 µM (not active). Also, the CC50 in data set [4] was 44.9 µM (active).
In the case of `CCN(CC)C(=O)CSc1nc2c(sc(=S)n2-c2ccccc2)c(=O)n1-c1ccc(OC)cc1OC`, the half-maximal inhibitory concentration (IC50) in [6] is 51.9 µM (active).
For `COc1ccc(N2CCN(C(=O)CN(Cc3ccc(Cl)cc3)S(C)(=O)=O)CC2)cc1`, the 50% effective concentration (EC50) in data set [1] was 11.3 µM (active).
Take `Cc1oc(-c2cccc(Cl)c2)nc1CN1CCC(C(=O)NCc2ccco2)CC1`: in data set [1], the EC50 was 5.8 µM (active).
For `CNc1nc(-c2ccc(N(C)C)cc2)nc2ccccc12`, the half-maximal activity concentration (AC50) result in data set [7] is given as “inconclusive”.
For the molecule `Cc1c(Nc2c3ccccc3nc3ccccc23)c(=O)n(-c2ccccc2)n1C`, the IC50 in data set [8], in data set [11], in data set [12] and in data set [13] was > 20 µM (inactive) throughout. In addition, the EC50 in data set [9] and in [10] was > 20 µM (inactive) throughout.
On to `CN1CCN(c2ncncc2-c2ccc(N(C)C)cc2)CC1`, for which the AC50 result in data set [7] is “inconclusive”; in data set [14], 2 µM (inconclusive).
Regarding `COc1ccc(OC)c(Cc2nnc(CCC(=O)N3CCN(C4CCCC4)CC3)o2)c1`, the AC50 in [15] is 7.48 µM (active).
Turning to `C[N+]1(CCOC(=O)C2(c3ccccc3)CCCC2)CCCCC1`, the values for the IC50 in data set [16] and in data set [17] were 3.57 µM (active) and 3.89 µM (active), respectively.
In the case of `CN1C(=O)/C(=C/c2cccc(Cl)c2)Sc2ccc(C(=O)N3CCOCC3)cc21`, the concentration at half-maximal activity (AC50) in [15] is 5.96 µM (active).
For `O=C(CCC1COc2ccccc2O1)NCC1COc2ccccc2O1` (stereo not given), the concentration for a half-maximal effect (EC50) in data set [1] was 1.77 µM (active).
As to `COc1ccccc1Nc1ncnc2c1c(C)c(C)n2CCCN(C)C`, the EC50 in data set [18] was 4.51 µM (active); in data set [20] it was 0.156 µM (active). Moreover, the CC50 in data set [19] is > 25 µM (active). The 50% inhibitory concentration (IC50) in data set [5] is 23.2 µM (active).
Consider `COc1cc(NC(=O)C2CCN(S(=O)(=O)c3cccc4nonc34)CC2)cc(OC)c1`, for which the half-maximal activity concentration (AC50) in data set [21] was 15.8 µM (inconclusive); in data set [7], “inconclusive”.
Regarding `O=C(NC1CC1)c1cc2cc3ccccc3nc2s1`, in data set [22], the AC50 was 45.7 µM (active).
With `CCOc1ccccc1-n1nnnc1SCC(=O)Nc1cc(C)on1`, the AC50 entry in [7] was “inconclusive”; in data set [14], 3.98 µM (inconclusive).
As to `Cc1ccc(-n2nnnc2CNC(=O)c2ccc([N+](=O)[O-])o2)cc1C`, the values for the cytotoxic concentration (CC50) in data set [23] and in data set [26] were 12.1 µM (active) and 22.5 µM (active), respectively. Further, the half-maximal effective concentration (EC50) is > 30 µM (not active) in data set [18] and 0.145 µM (active) in [20]. Also, in data set [24], the AC50 was 9.72 µM (active). Besides, the 50% inhibitory concentration (IC50) in data set [25] was 8.5 µM (active).
Regarding `CCCN(CCC)CCNC(=O)C1CCN(Cc2nc(-c3ccc(Cl)cc3)oc2C)CC1`, in data set [19], the CC50 was > 25 µM (active). Moreover, in [5], the IC50 was 10.8 µM (active).
On to `O=[N+]([O-])c1ccc(N2CCCCC2)nc1`, for which the AC50 in data set [22] is 3.98 µM (active).
With `C[N+](C)(C)c1ccccc1`, the IC50 in [16] is 3.33 µM (active); in data set [17], 2.16 µM (active).
In the same order, the values of `CN1CCN(S(=O)(=O)c2ccc(C3CCCCC3)cc2)CC1` are 16.8 µM (active) and 9.2 µM (active).
On to `O=[N+]([O-])c1ccc(NN=Cc2ccccc2O)nc1`, for which the IC50 in data set [27] was 46 µM (inactive).

One may read the EC50 as the midpoint of the concentration-response curve. Broadly, the IC50 is the concentration at which inhibition is half-maximal. Usually CC50 stands for the concentration at which the toxic effect on the cells reaches its halfway point. One may read the AC50 as the concentration at which the activity in the assay is half-maximal.
